The values below come from paper PMC6742494 (ACS infectious diseases, 2016).

Each structure is given as a SMILES string. ≈ marks a conversion by molar mass, not a printed value. Where “and” joins values, the source holds several entries; their conditions need not be identical. Equal entries are not always repeated. Where two headings read alike, the source gives them in different places.

For series [1], the system named is M. smegmatis mc^2155. The format is cell-based, Mycobacterium smegmatis. The settings on record: pH 5.5.
Series [2] concerns Mtb H37Rv. Kind of series: microbe, parasite or virus in culture. Type of series: cell-based, Mycobacterium tuberculosis. Conditions: for MIC99: Mycobacterium tuberculosis, H37RV.
Series [3] has as its system intracellular Mtb H37Rv in THP-1 cells. Type of series: cell-based, Mycobacterium tuberculosis.
The test system of series [4] is THP-1 cells. The series is described as follows: cells. The format is cell-based. Conditions: Homo sapiens, THP-1, 18 h, read-out: IC50 THP-1.
For series [5], the system named is normal human foreskin fibroblast (HFF) cells. Kind of series: cells. The format is cell-based. The settings on record: 48 h, read-out: IC50 HFF.
In series [6] the test system is Mtb T 21 (INH-sensitive). The series is described as follows: microbe, parasite or virus in culture. Type of series: cell-based. The settings on record: Mycobacterium tuberculosis.
For series [7], the system named is Mtb Beijing 26 (RIF-sensitive). Kind of series: microbe, parasite or virus in culture. Type of series: cell-based. The settings on record: Mycobacterium tuberculosis.
Series [8] concerns Mtb Haarlem 23 (RIF-sensitive). Kind of series: microbe, parasite or virus in culture. The format is cell-based. The settings on record: Mycobacterium tuberculosis.
Series [9] concerns PBS-starved H37Rv. Type of series: cell-based, Mycobacterium tuberculosis.
Series [10] has as its system M. smegmatis mc^2155. Kind of series: microbe, parasite or virus in culture. Type of series: cell-based, Mycobacterium smegmatis. The settings on record: Mycolicibacterium smegmatis.
Series [11] relates to M. bovis BCG. Kind of series: microbe, parasite or virus in culture. Type of series: cell-based. Conditions: Mycobacterium tuberculosis variant bovis BCG.
Series [12] deals with M. smegmatis mc^2155. The format is cell-based, Mycobacterium smegmatis.
The test system of series [13] is M. bovis BCG. Type of series: cell-based, Mycobacterium bovis.
In series [14] the test system is M. bovis BCG. The format is cell-based, Mycobacterium bovis. The source holds these as a separate data set.
Series [15] deals with Escherichia coli. Kind of series: microbe, parasite or virus in culture. The format is cell-based.
Series [16] deals with Staphylococcus aureus. Kind of series: microbe, parasite or virus in culture. Type of series: cell-based.
Series [17] concerns Bacillus subtilis. Kind of series: microbe, parasite or virus in culture. The format is cell-based.
Series [18] deals with Pseudomonas aeruginosa. Kind of series: microbe, parasite or virus in culture. The format is cell-based.
The conditions of series [19]: human.
The conditions of series [20]: mouse; for Clint: microsomes.
Series [21] can be described thus: in vitro. Conditions: human, microsomes.
Series [22] in a line: in vitro. The settings on record: mouse, microsomes.
Series [23] in a line: in vitro. Conditions: human, hepatocytes.
For series [24], the system named is M. bovis BCG. Type of series: cell-based, Mycobacterium bovis. This is another data set of the same source.
Series [25] deals with M. smegmatis mc^2155. Conditions: cited from earlier work.

With `N#CC(C#N)=NNc1cccc(Cl)c1` [CCCP, carbonyl cyanide m-chlorophenylhydrazone], the “intrabacterial pH” value in series [1] came out at 5.5.
Usually IC50 stands for the concentration at which inhibition is half-maximal. What is called half-life is the time in which the quantity being followed falls by half. Turning to `FC(F)(F)Oc1ccc(Oc2ccc(CNCCNC3C4CC5CC(C4)CC3C5)cc2)cc1` (centres unmarked) [Compound 8, N^1-adamantan-2-yl-N^2-(4-(4-(trifluoro-methoxy)phenoxy)benzyl)ethane-1,2-diamine], the MIC99 was 2.5 µM in series [2] and 1.2 mg/L in series [2] (120 h, read-out: MIC (MIC99)). In series [3], the “reduction in bacterial cfu compared to untreated infected macrophages” value was “two-log reduction”. The IC50 is 4.4 mg/L (≈ 9.55 µM) in series [4]; 16.1 mg/L (≈ 35 µM) in series [5]; 6.25 mg/L (≈ 13.6 µM) in [15]; 6.25 mg/L (≈ 13.6 µM) in [16]; 6.25 mg/L (≈ 13.6 µM) in [17]; 12.5 mg/L (≈ 27.1 µM) in series [18]. Also, the MIC was 0.58 mg/L (≈ 1.26 µM) in series [6]; 1.2 mg/L (≈ 2.61 µM) in series [7]; 1.2 mg/L (≈ 2.61 µM) in series [8]; 9.21 µg/mL and 20 µM in series [10]; 0.575 µg/mL and 1.25 µM in [11]. For the same compound, in [9], the “reduction in viability of non-replicating Mtb” value is given as 3 log. Moreover, the “sensitivity of non-replicating Mtb” value in series [9] is given as “sensitive”. For the same compound, the “effect on ΔΨ (red / green fluorescence ratio of DiOC2)” value in series [12] was “rapid depletion of ΔΨ”. In addition, the “intrabacterial pH” value in series [1] is listed as approximately 7. Besides, the “effect on ΔpH” value in series [13] is recorded as “None of the concentrations tested reduced ΔpH”. Besides, the “effect on intracellular ATP” value in series [14] is recorded as “reduces intracellular ATP in a dose-dependent manner”. Also, the “Predicted EH” value in [19] is reported as 0.144; in series [20], 0.557. This compound also gave a Clint in [20] of 113 mL/min. In addition, the half-life in series [21] was determined as 231 min; in [22], 24.1 min; in series [23], 190 min.
As for `CC[C@@H](CO)NCCN[C@@H](CC)CO` [EMB, ethambutol], the MIC99 in [2] (120 h, read-out: MIC (MIC99)) stood at 2 mg/L. Moreover, the MIC in series [6] turned out to be 0.5 mg/L (≈ 2.45 µM); in [7], 1 mg/L (≈ 4.89 µM); in series [8] it was 1 mg/L (≈ 4.89 µM). The “sensitivity of non-replicating Mtb” value in series [9] is listed as “tolerant”.
In the case of `NNC(=O)c1ccncc1` [INH, isoniazid], the “1×MIC (in vitro MIC)” value in series [2] was 0.05 mg/L. In [4], the IC50 was 7000 mg/L (≈ 51000 µM). Also, the MIC in [6] is 0.05 mg/L (≈ 0.365 µM); in series [7], 0.025 mg/L (≈ 0.182 µM); in [8], 0.025 mg/L (≈ 0.182 µM). Further, the “sensitivity of non-replicating Mtb” value in [9] was “tolerant”.
For `Cc1ncc2n1-c1ccc(Cl)cc1C(c1ccccc1F)=NC2` [Midazolam, midazolam], the results for the “Predicted EH” value in [19] and in series [20] were 0.920 and 0.924, respectively. Besides, the Clint in [19] (microsomes) turned out to be 239 mL/min; in [20] it was 1130 mL/min. Further, the half-life in series [21] stood at 3.35 min; in series [22] it was 2.41 min.
Turning to `CO[C@H]1/C=C/O[C@@]2(C)Oc3c(C)c(O)c4c(O)c(c(/C=N/N5CCN(C)CC5)c(O)c4c3C2=O)NC(=O)/C(C)=C\C=C\[C@H](C)[C@H](O)[C@@H](C)[C@@H](O)[C@@H](C)[C@H](OC(C)=O)[C@@H]1C` [RIF, rifampicin], in [2], the “1×MIC (in vitro MIC)” value stood at 0.025 mg/L. Besides, the IC50 in series [4] worked out at 240 mg/L (≈ 292 µM). Further, the MIC in series [6], in series [7] and in [8] was 0.0125 mg/L (≈ 0.0152 µM) throughout. Moreover, the “sensitivity of non-replicating Mtb” value in [9] was “tolerant”.
`CC(C)=CCC/C(C)=C/CNCCNC1C2CC3CC(C2)CC1C3` (centres unmarked) [SQ109]: the “MIC (MIC99)” value in series [2] was 1.6 mg/L (≈ 4.84 µM). Moreover, in series [2] (120 h, read-out: MIC (MIC99)), the MIC99 turned out to be 1.56 mg/L. Further, the “effect on ΔΨ” value in series [24] was “rapidly deplete ΔΨ”. Moreover, the “Predicted EH” value in series [19] was 0.929; in series [20], 0.926. For the same compound, the Clint in [20] came out at 1118 mL/min. Moreover, in series [25], the “effect on ΔΨ and ΔpH” value is “rapidly depleted both the transmembrane potential (ΔΨ) and the chemical proton gradient (ΔpH)”. Besides, the half-life was 2.97 min in series [21] and 2.44 min in [22].
